Molecules are shown by their SMILES. A value given as a limit tells only on which side of the number the result lay.

T1 sequence (P21728 whole entry): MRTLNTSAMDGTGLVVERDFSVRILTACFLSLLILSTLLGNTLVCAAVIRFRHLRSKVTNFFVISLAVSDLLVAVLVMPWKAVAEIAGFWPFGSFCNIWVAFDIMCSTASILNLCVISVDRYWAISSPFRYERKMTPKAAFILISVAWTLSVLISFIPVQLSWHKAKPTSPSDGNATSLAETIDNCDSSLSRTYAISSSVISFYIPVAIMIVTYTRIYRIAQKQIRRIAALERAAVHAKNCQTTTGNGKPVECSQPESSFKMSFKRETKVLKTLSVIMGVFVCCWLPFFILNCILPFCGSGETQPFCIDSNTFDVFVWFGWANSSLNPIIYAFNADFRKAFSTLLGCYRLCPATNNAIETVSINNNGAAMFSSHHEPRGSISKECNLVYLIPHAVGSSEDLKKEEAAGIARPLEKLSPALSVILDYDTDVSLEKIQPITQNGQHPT

The test concerns the target T1, dopamine D1 receptor (Homo sapiens, UniProt P21728).
T1 construct: host or cells: LMtk (Ltk-) mouse fibroblast cells
Kind of test: cAMP HTRF potentiation assay (presence of EC20 dopamine). Format: cell-based. Conditions: potentiation of cAMP in presence of EC20 dopamine (1.1 nM); LMtk (Ltk-) mouse fibroblast cells expressing the dopamine D1 receptor. The text has this: The present assay allows to measure respectively the effects of compounds of the Examples in the absence of dopamine (“activation assay”) and the effects of compounds of the Examples in the presence of dopamine (“potentiation assay”).
The potentiation assay measures the ability of compounds to increase the levels of cAMP produced by a low-threshold concentration of dopamine. The concentration of dopamine used ([EC20]) is designed to produce 20% stimulation compared to the maximal response (100%) seen with increasing the concentration of dopamine. To measure this potentiation we incubate increasing concentrations of the compound with the [EC2O] of dopamine and measure the potentiation as increases in cAMP production. The pEC50 of a compound is the −log 10 of the concentration of the compound which produces 50% of the potentiation of the cAMP levels and the Erel is the relative efficacy, defined as the maximal % potentiation produced by the compound compared to the maximal response produced by increasing concentrations of dopamine (Erel of 1=dopamine maximum response).
Cells were cultured at 37° C. in a humidified atmosphere of 5% CO2. Cells were grown in DMEM-F12+GlutaMAX™-I medium (GIBCO®, Invitrogen, Merelbeke, Belgium) containing 10% fetal bovine serum (BioWhittaker®, Lonza, Verviers, Belgium), 400 μg/mL Geneticin (GIBCO®), 100 IU/mL Penicillin and 100 IU/mL Streptomycin (Pen-Strep solution, BioWhittaker®).
The measurement of changes in intracellular cyclic adenosinemonophopshpate (cAMP) was determined using the HTRF cAMP dynamic assay kit from CisBio (Codolet, France). Using homogenous time-resolved fluoresence technology, the assay is based on competition between native cAMP produced by cells and cAMP labelled with the dye d2. The tracer binding is determined by an anti-cAMP antibody labeled with cryptate. The effects of the compound alone (agonism) was determined by performing the assay in the absence of dopamine, whilst the effect of the compound as a positive allosteric modulator (PAM) was determined in the presence of an EC20 concentration of dopamine. Cells (20,000 per well) are incubated in 384 plates for 1 hour at room temperature in a final volume of 20 μLHBSS (Lonza, with calcium, magnesium and HEPES buffer 20 mM, pH 7.4) containing: isobutyl methylxanthine (Sigma, 0.1 mM final), varying concentrations of test compound (typically […] to 10^−4.5M) in the presence and absence of dopamine (1.1 nM final). The reaction is then terminated and the cells lysed by adding the d2 detection reagent in lysis buffer (10 microL) and the cryptate reagent in lysis buffer (10 microl) according to manufacturer's instructions. This is then incubated for a further 60 min at room temperature and changes in HTRF fluorescent emission ratio determined according to manufacturer's instructions using an Envision plate reader (Perkin Elmer, Zaventem, Belgium) with laser excitation. All incubations were performed in duplicate and results were compared to a concentration-effect curve to dopamine. (10^−11M to 10^−6M).
Data was analyzed using Excel and PRISM (GraphPad Software) to obtain pEC50 and Erel using the 4-parameter logistic equation (DeLean et al, 1978) where Erel is the fitted maximal response of the test compound minus basal expressed as a percentage relative to that obtained with dopamine which was defined as 100%.
In general, EC50 refers to the concentration at which the effect is half-maximal. `C[C@H]1c2cccc([C@@](C)(O)CF)c2CCN1C(=O)Cc1c(Cl)cnc2c1c(Cl)nn2C` [Example 19, 2-(3,5-dichloro-1-methyl-pyrazolo[3,4-b]pyridin-4-yl)-1-[(1S)-5-((1R)-2-fluoro-1-hydroxy-1-methyl-ethyl)-1-methyl-3,4-dihydro-1H-isoquinolin-2-yl]ethanone]: the EC50 is 31.6 to 100 nM.
The value for `C[C@H]1c2cccc([C@@](C)(O)CF)c2CCN1C(=O)Cc1c(Cl)cnc2[nH]nc(Cl)c12` [Example 15, 2-(3,5-dichloro-1H-pyrazolo[3,4-b]pyridin-4-yl)-1-[(1S)-5-[(1R)-2-fluoro-1-hydroxy-1-methyl-ethyl]-1-methyl-3,4-dihydro-1H-isoquinolin-2-yl]ethanone] was at most 31.6 nM.
In the case of `C[C@H]1c2cccc(C(C)(O)C(F)F)c2CCN1C(=O)Cc1c(Cl)cnc2c1c(Cl)nn2C` (single isomer, unassigned) [Example 21], the 50% effective concentration (EC50) was at most 31.6 nM.
For the compound `C[C@H]1c2cccc(C(O)(CF)CF)c2CCN1C(=O)Cc1c(Cl)cnc2c1c(Cl)nn2C` [Example 23, 2-(3,5-dichloro-1-methyl-pyrazolo[3,4-b]pyridin-4-yl)-1-[(1S)-5-[2-fluoro-1-(fluoromethyl)-1-hydroxy-ethyl]-1-methyl-3,4-dihydro-1H-isoquinolin-2-yl]ethanone], the EC50 is 31.6 to 100 nM.
Regarding `C[C@H]1c2cccc([C@@](C)(O)CF)c2CCN1C(=O)Cc1c(Cl)ccc2c1c(Cl)nn2C` [Example 24, 2-(3,5-dichloro-1-methyl-indazol-4-yl)-1-[(1S)-5-[(1R)-2-fluoro-1-hydroxy-1-methyl-ethyl]-1-methyl-3,4-dihydro-1H-isoquinolin-2-yl]ethanone], the EC50 was 31.6 to 100 nM.
With `C[C@H]1c2cccc(C(C)(O)C(F)F)c2CCN1C(=O)Cc1c(Cl)ccc2[nH]nc(Cl)c12` (single isomer, unassigned) [Example 6], the EC50 was at most 31.6 nM.
In the case of `C[C@H]1c2cccc(C(C)(O)C(F)F)c2CCN1C(=O)Cc1c(Cl)c(C2CC2)cn2ncc(Cl)c12` (single isomer, unassigned) [Example 31], the half-maximal effective concentration (EC50) was 31.6 to 100 nM.
As to `C[C@H]1c2cccc([C@@H](O)C(F)F)c2CCN1C(=O)Cc1c(Cl)ccc2[nH]nc(Cl)c12` [Example 4, 2-(3,5-dichloro-1H-indazol-4-yl)-1-[(1S)-5-[(1R)-2,2-difluoro-1-hydroxy-ethyl]-1-methyl-3,4-dihydro-1H-isoquinolin-2-yl]ethanone], the EC50 was at most 31.6 nM.
Take `C[C@H]1c2cccc(C(C)(O)C(F)F)c2CCN1C(=O)Cc1c(Cl)ccc2c1c(Cl)nn2C` (single isomer, unassigned) [Example 26]: the EC50 is 31.6 to 100 nM.
Take `C[C@H]1c2cccc([C@H](O)C(F)F)c2CCN1C(=O)Cc1c(Cl)ccn2ncc(Cl)c12` [Example 30, 2-(3,5-dichloropyrazolo[1,5-a]pyridin-4-yl)-1-[(1S)-5-[(1S)-2,2-difluoro-1-hydroxy-ethyl]-1-methyl-3,4-dihydro-1H-isoquinolin-2-yl]ethanone]: the half-maximal effective concentration (EC50) was at most 31.6 nM.
As to `C[C@H]1c2cccc(C(C)(O)C(F)F)c2CCN1C(=O)Cc1c(Cl)cnc2[nH]nc(Cl)c12` (single isomer, unassigned) [Example 16], the concentration for a half-maximal effect (EC50) is at most 31.6 nM.
On to `C[C@H]1c2cccc(C(O)(CF)CF)c2CCN1C(=O)Cc1c(Cl)ccc2c1c(Cl)nn2C` [Example 28, 2-(3,5-dichloro-1-methyl-indazol-4-yl)-1-[(1S)-5-[2-fluoro-1-(fluoromethyl)-1-hydroxy-ethyl]-1-methyl-3,4-dihydro-1H-isoquinolin-2-yl]ethanone], for which the EC50 was at most 31.6 nM.
With `C[C@H]1c2cccc([C@](C)(O)CF)c2CCN1C(=O)Cc1c(Cl)ccc2[nH]nc(Cl)c12` [Example 3, 2-(3,5-dichloro-1H-indazol-4-yl)-1-[(1S)-5-[(1S)-2-fluoro-1-hydroxy-1-methyl-ethyl]-1-methyl-3,4-dihydro-1H-isoquinolin-2-yl]ethanone], the EC50 was at most 31.6 nM.
The figure for `C[C@H]1c2cccc([C@H](O)C(F)F)c2CCN1C(=O)Cc1c(Cl)ccc2[nH]nc(Cl)c12` [Example 5, 2-(3,5-dichloro-1H-indazol-4-yl)-1-[(1S)-5-[(1S)-2,2-difluoro-1-hydroxy-ethyl]-1-methyl-3,4-dihydro-1H-isoquinolin-2-yl]ethanone] is at most 31.6 nM.
With `C[C@H]1c2cccc([C@](C)(O)CF)c2CCN1C(=O)Cc1c(Cl)cnc2[nH]nc(Cl)c12` [Example 14, 2-(3,5-dichloro-1H-pyrazolo[3,4-b]pyridin-4-yl)-1-[(1S)-5-[(1S)-2-fluoro-1-hydroxy-1-methyl-ethyl]-1-methyl-3,4-dihydro-1H-isoquinolin-2-yl]ethanone], the EC50 was at most 31.6 nM.
The figure for `C[C@H]1c2cccc([C@H](O)C(F)F)c2CCN1C(=O)Cc1c(Cl)ccc2nn(C)c(Cl)c12` [Example 9, 2-(3,5-dichloro-2-methyl-indazol-4-yl)-1-[(1S)-5-[(1S)-2,2-difluoro-1-hydroxy-ethyl]-1-methyl-3,4-dihydro-1H-isoquinolin-2-yl]ethanone] is 31.6 to 100 nM.
Turning to `C[C@H]1c2cccc([C@](C)(O)CF)c2CCN1C(=O)Cc1c(Cl)ccc2c1c(Cl)nn2C` [Example 25, 2-(3,5-dichloro-1-methyl-indazol-4-yl)-1-[(1S)-5-[(1S)-2-fluoro-1-hydroxy-1-methyl-ethyl]-1-methyl-3,4-dihydro-1H-isoquinolin-2-yl]ethanone], the EC50 is 31.6 to 100 nM.
Regarding `C[C@H]1c2cccc([C@@H](O)C(F)F)c2CCN1C(=O)Cc1c(Cl)ccc2c1c(Cl)nn2C` [Example 10, 2-(3,5-dichloro-1-methyl-indazol-4-yl)-1-[(1S)-5-[(1R)-2,2-difluoro-1-hydroxy-ethyl]-1-methyl-3,4-dihydro-1H-isoquinolin-2-yl]ethanone], the EC50 was 31.6 to 100 nM.
`C[C@H]1c2cccc([C@@H](O)C(F)F)c2CCN1C(=O)Cc1c(Cl)ccc2nn(C)c(Cl)c12` [Example 8, 2-(3,5-dichloro-2-methyl-indazol-4-yl)-1-[(1S)-5-[(1R)-2,2-difluoro-1-hydroxy-ethyl]-1-methyl-3,4-dihydro-1H-isoquinolin-2-yl]ethanone]: the EC50 is at most 31.6 nM.
Regarding `C[C@H]1c2cccc([C@](C)(O)CF)c2CCN1C(=O)Cc1c(Cl)cnc2c1c(Cl)nn2C` [Example 20, 2-(3,5-dichloro-1-methyl-pyrazolo[3,4-b]pyridin-4-yl)-1-[(1S)-5-((1S)-2-fluoro-1-hydroxy-1-methyl-ethyl)-1-methyl-3,4-dihydro-1H-isoquinolin-2-yl]ethanone], the concentration for a half-maximal effect (EC50) is at most 31.6 nM.
The figure for `C[C@H]1c2cccc([C@H](O)C(F)F)c2CCN1C(=O)Cc1c(Cl)ccc2onc(Cl)c12` [Example 1, 2-(3,5-dichloro-1,2-benzoxazol-4-yl)-1-[(1S)-5-[(1S)-2,2-difluoro-1-hydroxy-ethyl]-1-methyl-3,4-dihydro-1H-isoquinolin-2-yl]ethanone] is at most 31.6 nM; for `C[C@H]1c2cccc(C(C)(O)C(F)F)c2CCN1C(=O)Cc1c(Cl)ccc2nn(C)c(Cl)c12` (single isomer, unassigned) [Example 12] it is 31.6 to 100 nM.
Turning to `C[C@H]1c2cccc(C(O)(CF)CF)c2CCN1C(=O)Cc1c(Cl)cnc2[nH]nc(Cl)c12` [Example 18, 2-(3,5-dichloro-1H-pyrazolo[3,4-b]pyridin-4-yl)-1-[(1S)-5-[2-fluoro-1-(fluoromethyl)-1-hydroxy-ethyl]-1-methyl-3,4-dihydro-1H-isoquinolin-2-yl]ethanone], the EC50 is 31.6 to 100 nM.
As for `C[C@H]1c2cccc([C@H](O)C(F)F)c2CCN1C(=O)Cc1c(Cl)ccc2c1c(Cl)nn2C` [Example 11, 2-(3,5-dichloro-1-methyl-indazol-4-yl)-1-[(1S)-5-[(1S)-2,2-difluoro-1-hydroxy-ethyl]-1-methyl-3,4-dihydro-1H-isoquinolin-2-yl]ethanone], the EC50 was 31.6 to 100 nM.
